Non-standard residues stand in square brackets, D forms with d. No end group written: not given here. Hyp = O=C(O)[C@@H]1C[C@@H](O)CN1
System: C2C12 myoblast
Test: Myoblast differentiation promotion test in myoblast culture (Western blotting of differentiation markers)
Type: cell-based, mouse
Settings: Western blot band, numerical value in relation to 100 = control, 100 μM final concentration, eight days exposure
Description: Myoblast Differentiation Promotion Test in Myoblast Culture
For culture of C2C12 myoblast derived from mouse, a D-MEM culture medium containing 10% FBS, 100 units/mL sodium penicillin G, 100 μg/mL streptomycin and 1.0 g/L NaHCO3 (D-MEM culture medium (10% FBS, +P/S)) was used. Culture was conducted in an incubator at 37° C. containing 95% air and 5% CO2. In the condition that C2C12 myoblast was 90% confluent, the culture medium was replaced by a D-MEM culture medium including 2% horse serum (HS), 100 units/mL sodium penicillin G, 100 μg/mL streptomycin and 1.0 g/L NaHCO3 (D-MEM culture medium (2% HS+P/S)), and then the D-MEM culture medium (2% HS+P/S) replacement was repeated every two days to lead to differentiation into myotube cells. The peptides of Examples 1 to 21 and Comparative Examples 1 to 3 were added in a final concentration of 100 μM to the culture medium every the culture medium replacement, and cells were continuously exposed thereto for eight days.
The Western blotting method was conducted in the following procedure. The cells used for protein measurement were washed twice with PBS at the time of recovery, and the cells were scraped with a cell scraper and transferred to a tube, and centrifuged at 4° C. and at 250×g for 3 minutes, and then PBS was completely removed. For each tube, the cells were suspended in 100 μL of a buffer (20 mM HEPES-NaOH (pH 7.5), 0.5% NP-40, 1 mM EDTA, 100 μM AEBSF, 1 μg/mL aprotinin, 10 μg/mL leupeptin, 1 mM DTT, 1 mM sodium ortho-vanadate, 10 mM sodium fluoride, 10 μM ammonium molybdate, 10 mM sodium pyrophosphate), and then crushed under ice cooling for 5 seconds three times for each sample by using an ultrasonic disperser, followed by quantification of the amount of a protein. Quantification of the amount of a protein was conducted according to the method of Bradford using bovine serum albumin as a standard protein. After end of SDS-PAGE, a blotting device was used to conduct electro-transferring at 1.5 mA per 1 cm^2 of a membrane for 1 hour on a PVDF membrane equilibrated with methanol and subjected to pre-wetting by infiltration with a transfer buffer (48 mM Tris, 39 mM glycine). After end of the transferring, the PVDF membrane was blocked with PBS (−) containing 6% skim milk for 1 hour. A primary antibody was diluted in the following manner, and an antigen-antibody reaction was conducted overnight at 4° C. A peroxidase-conjugated secondary antibody against each primary antibody was diluted in PBS (−) containing 6% skim milk in the ratios: mouse anti-myosin heavy chain monoclonal antibody (MF20) culture supernatant 1/2000, mouse anti-tropomyosin monoclonal antibody (CH1) culture supernatant 1/2000, rabbit anti-GAPDH polyclonal antibody 1/3000, peroxidase-conjugated anti-mouse IgG 1/5000, and peroxidase-conjugated anti-rabbit IgG 1/2000, allowed to react for 30 minutes, and washed three times with PBS (−) for 10 minutes. Then the membrane was immersed in Immobilon™ Western Chemiluminescent HRP Substrate for 3 minutes, and detected by LAS-4000 (GE Healthcare, Buckinghamshire, UK). A band was converted into numbers by imageJ, and expressed in a numerical value in relation to 100 which was the value of the control.

Ala-Hyp [Comparative Example 1, reference compound]
Myosin heavy chain: 62 | Tropomyosin: 44

Ala-[Hyp]-Gly [Example 1]
Myosin heavy chain: 218 | Tropomyosin: 191

Glu-Hyp [Example 4]
Myosin heavy chain: 214 | Tropomyosin: 140

Gly-Pro-[Hyp] [Example 5]
Myosin heavy chain: 217 | Tropomyosin: 165

Hyp-Gly [Example 7]
Myosin heavy chain: 334 | Tropomyosin: 419

Leu-Hyp [Example 3]
Myosin heavy chain: 143 | Tropomyosin: 195

Pro-Ala [Example 6]
Myosin heavy chain: 131 | Tropomyosin: 169

Pro-Hyp [Example 8]
Myosin heavy chain: 278 | Tropomyosin: 307

[Hyp]-Gly-Pro [Example 2]
Myosin heavy chain: 166 | Tropomyosin: 181

Source: US10632177B2, “Myoblast differentiation promoter” (NITTA GELATIN INC., priority 2012, dated 2020)
